Assay results published in article PMC4691232 (Chemistry & Biology, 2015).
“Also recorded” adds a separate entry of the source.

Columns and labels:
WcbL [1] = biological target: T1, WcbL (Burkholderia pseudomallei, UniProt H7C745); test: biochemical
WcbL [2] = biological target: T1, WcbL; test: biochemical; format: binding

T1 sequence (H7C745 1-346): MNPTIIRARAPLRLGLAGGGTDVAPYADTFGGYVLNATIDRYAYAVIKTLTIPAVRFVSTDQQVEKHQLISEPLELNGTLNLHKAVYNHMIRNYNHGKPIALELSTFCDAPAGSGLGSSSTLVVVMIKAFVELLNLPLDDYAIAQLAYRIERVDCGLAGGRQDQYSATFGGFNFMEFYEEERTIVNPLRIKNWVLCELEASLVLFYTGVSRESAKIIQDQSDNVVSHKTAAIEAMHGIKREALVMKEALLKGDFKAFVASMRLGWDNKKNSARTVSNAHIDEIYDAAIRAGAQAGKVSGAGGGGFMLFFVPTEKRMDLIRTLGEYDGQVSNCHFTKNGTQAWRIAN

N#Cc1coc2ccccc2c1=O [3-cyanochromone]
Ki (WcbL [1]): 10 ± 6 µM

N#Cc1coc2c(Cl)cc(Cl)cc2c1=O [6,8-dichloro-3-cyanochromone]
activity against WcbL (structure-activity relationship study, in words) (WcbL [1]): significantly weaker activity; also recorded: far less potent inhibitor

N#Cc1coc2ccc(Br)cc2c1=O [6-bromo-3-cyanochromone]
Ki (WcbL [1]): 12 ± 5 µM | activity against WcbL (structure-activity relationship study, in words) (WcbL [1]): very similar to those of the original compound

Nc1ncnc2c1ncn2[C@@H]1OC(COP(=O)(O)OP(=O)(O)OP(=O)(O)O)[C@@H](O)[C@H]1O (stereo partly shown) [ATP]
Kd (WcbL [2]): 33 ± 7 µM | cooperativity coefficient n (DSF binding) (WcbL [2]): 0.6 ± 0.06

O=P(O)(O)OCC(O)C1OC(O)C(O)C(O)C1O [M7P, D-manno-α,β-D-heptose-7-phosphate]
Kd (WcbL [2]): 968 ± 37 µM | cooperativity coefficient n (DSF binding) (WcbL [2]): did not show any cooperativity

O=Cc1coc2ccccc2c1=O [chromone-3-carboxaldehyde]
activity against WcbL (structure-activity relationship study, in words) (WcbL [1]): significantly weaker activity; also recorded: much weaker IC50

O=c1ccoc2ccccc12 [chromone]
activity against WcbL (structure-activity relationship study, in words) (WcbL [1]): significantly weaker activity; also recorded: does not inhibit WcbL
